{"source": "paper PMC9569971", "about": "“New Oxazolo[5,4-d]pyrimidines as Potential Anticancer Agents: Their Design, Synthesis, and In Vitro Biological Activity Research” (International Journal of Molecular Sciences, 2022)", "key": {"[1]": {"test_system": "HT29 primary colon adenocarcinoma cells", "assay": "Detection of apoptosis (Annexin V FITC / propidium iodide)", "format": "cell-based, human", "parameters": "unit not given here", "conditions": "24 h", "outline": "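After 24 h growth at 30,000 cells/well, HT29 cells were treated with compound at 1, 2, 5 and 10 µM for 24 h. They were then stained with Annexin V-FITC/propidium iodide in PBS with Mg²⁺/Ca²⁺ for 20 min at 37 °C.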"}, "BCL-2": {"test_system": "BCL-2", "assay": "BCL-2 Human ELISA Kit, HT29 lysate", "format": "cell-based", "conditions": "lysate of HT29 cells treated with 3g; SD ±0.11", "method": "The assay was performed on a lysate of the HT29 colon adenocarcinoma cell line treated with compound 3g. The wells of the assay microplate were coated with a BCL-2-specific antibody, and the BCL-2 present in the test and standards was bound to the antibodies adsorbed in the microwells, which were washed twice with 400 µL of washing buffer per well with careful aspiration. The washing buffer was left in the wells for 15 s before aspiration. Care was taken not to scratch the surface of the microwells. Following the final washing step, the wells were emptied and excess washing buffer was discarded. Two rows of the human standard BCL-2 were prepared at dilutions ranging from 32.0 to 0.5 ng/mL. Biotin conjugate was prepared, and 50 µL of biotin conjugate was added to all wells, covered with adhesive foil, and incubated at room temperature (18 to 25 °C) for 2 h on a microplate shaker. The adhesive film was removed and washed 3 times. […] The color change of the mixture was monitored with an ELISA reader at 620 nm. […] The results were read immediately after the stop solution was added. The reading was taken at the original wavelength of 450 nm. […]\nBiological assays were performed in three independent replicates, and each replicate used four samples. […] For the assessment of cytotoxicity, mathematical models were developed using the GraphPad PRISM software, based on which CC50 was determined. […]"}, "[2]": {"assay": "MTT viability assay, NHDF", "format": "cell-based, human", "conditions": "human, normal human dermal fibroblasts (NHDF), tested 1–500 µM"}, "[3]": {"test_system": "metastatic colon adenocarcinoma (LoVo)", "assay": "MTT viability assay, LoVo", "format": "cell-based, human", "method": "When the confluence was greater than 70%, adherent cell lines were detached from the bottle surface with a TrypLE solution and then used in assays or reduced. The cells were collected into centrifuge tubes and centrifuged at 1000× g for 5 min at room temperature. The supernatant was removed to dry. The cell pellets were then resuspended in an appropriate medium. The cells were counted using a Bürker chamber and resuspended in 96-well plates to a cell density of 10,000 cells per well for MTT assay. For the rhodamine accumulation test and the detection of apoptosis assay, cells were seeded at a density of 30,000 per well. In the migration assay, cells were seeded at a density of 20,000 per well, and monolayer formation was awaited.\nIn this study, normal human dermal fibroblasts (NHDFs), breast cancer cells (MCF7), human lung adenocarcinoma cells (A549), murine fibroblasts (L929), colon adenocarcinoma cells (HT29), and colorectal adenocarcinoma cells (LoVo) were used. All cell lines were cultured in the recommended media. […] The human lung adenocarcinoma cell line A549 and breast cancer cell line MCF-7 were obtained from the ECACC. These cell lines were cultured in Eagle’s minimal essential medium (MEM). Murine fibroblast L929 (Sigma-Aldrich, Merck Group, Headquarters, Darmstadt, Germany; the European Collection of Authenticated Cell Cultures—ECACC) cells were grown in DMEM. […] All media were supplemented with 10% FBS and 100 µg/mL of penicillin–streptomycin.\nAll compounds were dissolved in DMSO and the reference drugs were dissolved in physiological saline to concentrations of 10 mM. Concentrations from 1 to 500 μM in the media recommended for the cell lines were prepared for the tests.\nAll of the synthesized derivatives were evaluated via the MTT assay. All cell lines were seeded into 96-well plates at a density of 10,000 cells per well. To allow the cells to adhere to the surface of the plates, they were incubated overnight before the application of the test compounds. […] The tests were performed for concentrations of 1, 5, 10, 25, 50, 100, 250, and 500 μM. The solutions of the test compounds were removed from the culture on the 96-well plates. […] The supernatant was then removed. The violet crystal was dissolved in isopropanol for 30 min by shaking. Absorbance was measured at 570 nm.\nBiological assays were performed in three independent replicates, and each replicate used four samples. Three repetitions were made for the ELISA determinations. For the assessment of cytotoxicity, mathematical models were developed using the GraphPad PRISM software, based on which CC50 was determined. The values of CC50 were estimated based on nonlinear regression using the dependence of the biological effect on the molar concentrations of the compounds (four-parameter logistic model with Hill slope)."}}, "data": [{"smiles": "Cc1noc(N)c1-c1nc2c(NCCCN(C)C)ncnc2o1", "note": "[Compound 3g, 2-(5-Amino-3-methylisoxazol-4-yl)-7-N-[3-(N,N-dimethylamino)propyl]aminooxazolo[5,4-d]pyrimidine]", "values": [{"measurement": "apoptosis mean", "setting": "[1]; 1 μM", "result": 3.74}, {"measurement": "late apoptosis mean", "setting": "[1]; 1 μM", "result": 8.08}, {"measurement": "necrosis mean", "setting": "[1]; 1 μM", "result": 11.28}, {"measurement": "percent live (viable) cells", "setting": "[1]; 1 μM", "result": 76.90}, {"measurement": "apoptosis mean", "setting": "[1]; 2 μM", "result": 9.72}, {"measurement": "late apoptosis mean", "setting": "[1]; 2 μM", "result": 9.30}, {"measurement": "necrosis mean", "setting": "[1]; 2 μM", "result": 6.34}, {"measurement": "percent live (viable) cells", "setting": "[1]; 2 μM", "result": 74.65}, {"measurement": "apoptosis mean", "setting": "[1]; 5 μM", "result": 51.54}, {"measurement": "late apoptosis mean", "setting": "[1]; 5 μM", "result": 23.48}, {"measurement": "necrosis mean", "setting": "[1]; 5 μM", "result": 1.18}, {"measurement": "percent live (viable) cells", "setting": "[1]; 5 μM", "result": 23.81}, {"measurement": "apoptosis mean", "setting": "[1]; 10 μM", "result": 45.24}, {"measurement": "late apoptosis mean", "setting": "[1]; 10 μM", "result": 29.23}, {"measurement": "necrosis mean", "setting": "[1]; 10 μM", "result": 0.90}, {"measurement": "percent live (viable) cells", "setting": "[1]; 10 μM", "result": 24.62}, {"measurement": "BCL-2 concentration", "setting": "BCL-2", "result": 0.41, "unit": "ng/mL"}, {"measurement": "CC50", "setting": "[2]", "result": "156 ± 15.5", "unit": "µM"}, {"measurement": "SI (selectivity index)", "setting": "[3]; CC50 NHDF / CC50 LoVo", "result": 0.695}, {"measurement": "CC50", "setting": "[3]; Homo sapiens, LoVo, MTT, tested 1–500 µM", "result": "224 ± 17.1", "unit": "µM"}]}]}
